The subject of data set [1] is 4T1 murine breast cancer cells. The data set can be described thus: In vitro cellular inhibition (MTT) and synergy quantification. The format is cell-based. The method, then: 4T1 cells were seeded in 96 well plates at a density of 500 cells/well. Cells were given 24 hours to adhere to the well plate. Afterwards, a series of ten drug or drug combination dilutions prepared in fresh media were administered to the cells, with a starting concentration of 100 μM. The drugs were incubated with the cells for 72 hours before the media was removed and replaced with 0.5 mg/ml of MTT reagent in media fresh media. The MTT reagent was left incubating with the cells for 4 hours, during which living cells metabolized the reagent to form solid formazan crystals. Afterwards, the MTT reagent in media was removed, and the crystallized formazan was dissolved in DMSO. The plate is shaken at 300 rpm for 15 minutes to fully dissolve the formazan crystals, and absorbance was measured at 590 nm via Spectramax i3 plate reader. The fraction of cells inhibited at a certain drug concentration was calculated by: […]
where A is the average absorbance of the treated wells, A0 is the average absorbance of the blank wells with DMSO, and AC is the average absorbance of the control untreated wells. The IC50 values for each treatment was then determined through fitting of the Hill equation for dose-response in GraphPad™. The Hill equation is given as follows: […]
with X as the drug concentration and Y as the fractional inhibition, and m is known as the Hill coefficient and is determined according to the fit.
To evaluate drug efficacy against 4T1, drugs were evaluated as single drugs and as combination treatments with DOX. Synergy was quantified using the combination index (CI)^10. The formula for CI is as follows:
Where [AC]50 and [BC]50 represent the IC50 of drugs A and B when given in combination, and the denominator represents the IC50 of single drugs A and B. CI<1 indicates synergy, while a CI=1 indicates additive effects, and a CI>1 indicates antagonism.

The next data set deals with 4T1 cells. Briefly: Calreticulin exposure on 4T1 cells. As to conditions: 10 μM DOX, compared to untreated controls. The class given is cell-based, murine.
Data set [2] in a line: Drug release from liposomes into PBS at 37° C. over 24 hours, Example 1. The class given is physicochemical. Particulars: release from liposomal formulation. How it is done:
The release profile of drug from liposomes was studied using Amicon Ultra mini dialysis filters supplied by Millipore Sigma (Burlington, Mass.) at sink conditions^59. A tenfold dilution of each liposomal formulation in PBS was kept in the mini dialysis filter at 37° C. above a 1.1 ml PBS reservoir. Samples were placed on a plate shaker for constant agitation. […] All PBS reservoirs were analyzed for released drug content using HPLC.

[3] abbreviates: free drugs and free drug combinations.
Setting [4] is: free drugs and free drug combinations, 72 hours, 500 cells/well.
Setting [5] is: Mus musculus, 72 h, free drugs and free drug combinations, 500 cells/well.

Several values for one entry are separate records, joined by “and”; a condition that tells them apart may be missing. Equal values may be shown once.

Description for 4T1 cells: Cells for antibody staining and flow cytometry studies were plated in 6-well plates in 3 ml of media and allowed to adhere overnight. […] Treatment was administered approximately 24 h after plating. Cells were harvested using 0.5 ml of trypsin and resuspended to establish 10^6 cells in 100 μl of cell staining buffer. Cells were washed once and incubated at room temperature with 1% CD16/32 in 100 μl of cell staining buffer. After another wash, cells were incubated for 30 min on ice with fluorescently labeled antibodies (Table 12) to distinguish tumor antigens or characteristic markers of immune cell subtypes. Antibody-stained cells were then washed twice before analysis with a BD LSRII flow cytometer.

In the case of `COc1cccc2c1C(=O)c1c(O)c3c(c(O)c1C2=O)C[C@@](O)(C(=O)CO)C[C@@H]3O[C@H]1C[C@H](N)[C@H](O)[C@H](C)O1` [DOX, Doxorubicin], the “Hill coefficient, HC” value in data set [1] (setting [3]) is 0.75 ± 0.04. Also, the IC50 in data set [1] (setting [4]) was 36 nM. Besides, the “fold increase in calreticulin exposure on 4T1 cells” value in the data set on 4T1 cells is on record as 1.8 fold.

In the case of `Nc1ccn([C@@H]2O[C@H](CO)[C@@H](O)C2(F)F)c(=O)n1` [GEM, gemcitabine], the concentration for half-maximal inhibition (IC50) in data set [1] (setting [5]) was 12 ± 0.3 nM; in data set [1] (Mus musculus, free drug) it was 12 ± 0.3 nM. In data set [1] (setting [3]), the “Hill coefficient, HC” value is 1.8±0.09 and 1.83 ± 0.09.

For the molecule `CCc1c2c(nc3ccc(OC(=O)N4CCC(N5CCCCC5)CC4)cc13)-c1cc3c(c(=O)n1C2)COC(=O)[C@]3(O)CC` [IRIN, irinotecan], the IC50 in data set [1] (setting [5]) turned out to be 14000 nM; in data set [1] (setting [4]) it was 14000 ± 700 nM. Further, the “IRIN released within 24 hours” value in data set [2] is listed as “less than 40%”.

What is called IC50 is the midpoint of a concentration-inhibition curve.

The record behind these values is patent US20230093147A1, “METHODS AND COMPOSITIONS RELATING TO IMPROVED COMBINATION THERAPIES” (PRESIDENT AND FELLOWS OF HARVARD COLLEGE, priority 2020, published 2023).
